Drawing on PMC7918520, “From Data Mining of Chitinophaga sp. Genome to Enzyme Discovery of a Hyperthermophilic Metallocarboxypeptidase” (Microorganisms, 2021), this text covers Km and stoichiometry N for five molecules.

Peptide text beside a SMILES is read from it. * marks the point of attachment. Cbz = O=C(OCc1ccccc1)*

What is called Km is the concentration of substrate that gives half-maximal velocity. A word on the stoichiometry N: it is the number of molecules, sites or subunits per partner or assembly.

In experiment [1] the target is T1, ChtCP (Chitinophaga sp. CB10, UniProt A0A822ZZF9).
T1 construct: homodimer; motifs 76HHPEL80 and 267HEXXH271
Briefly: Cd-ninhydrin assay of released amino acids, A500, Michaelis-Menten fit. Type of experiment: biochemical. Conditions: 50 mM HEPES pH 8.0, 65 °C; substrate 0.195 to 25 mM; metal addition not stated. From the text:
Cd-ninhydrin assay of released amino acids, A500, Michaelis-Menten fit on ChtCP

Experiment [2] deals with ChtCP, M32 family metallocarboxypeptidase from Chitinophaga sp. CB10 (Chitinophaga sp. CB10). Description: SEC; HiLoad Superdex 200 16/60, 20 mM Tris-HCl pH 8, 200 mM NaCl, 0.5% glycerol, 4 °C, 1 mL/min; elution volume compared with mass standards. On the technique in general: SEC sorts molecules by how far they enter the pores of the column.

T1 sequence (A0A822ZZF9 entry or part of it): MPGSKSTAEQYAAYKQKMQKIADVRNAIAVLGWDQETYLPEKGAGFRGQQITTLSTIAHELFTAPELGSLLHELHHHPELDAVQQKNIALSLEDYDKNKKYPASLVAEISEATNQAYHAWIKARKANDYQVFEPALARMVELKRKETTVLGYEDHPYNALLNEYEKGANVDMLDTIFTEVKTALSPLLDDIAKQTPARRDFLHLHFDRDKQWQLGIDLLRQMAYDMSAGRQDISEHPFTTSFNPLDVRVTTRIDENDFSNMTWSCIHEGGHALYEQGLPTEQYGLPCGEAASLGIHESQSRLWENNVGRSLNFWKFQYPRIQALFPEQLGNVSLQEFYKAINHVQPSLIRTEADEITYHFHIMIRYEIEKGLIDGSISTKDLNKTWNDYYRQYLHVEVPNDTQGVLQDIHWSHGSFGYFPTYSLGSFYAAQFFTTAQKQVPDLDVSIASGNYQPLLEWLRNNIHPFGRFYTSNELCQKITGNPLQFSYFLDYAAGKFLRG

As for `C[C@H](NC(=O)[C@H](C)NC(=O)OCc1ccccc1)C(=O)O` [ZAA, benzyloxycarbonyl Ala-Ala] (Cbz-Ala-Ala-OH), the Km in experiment [1] worked out at 28.1 mM. As to `C[C@H](NC(=O)OCc1ccccc1)C(=O)N[C@@H](CC(N)=O)C(=O)O` [ZAN, benzyloxycarbonyl Ala-Asn] (Cbz-Ala-Asn-OH), the Km in experiment [1] amounted to 34.1 mM. Same read-out and setting: then `C[C@H](NC(=O)OCc1ccccc1)C(=O)N[C@@H](CCCNC(=N)N)C(=O)O` [ZAR, benzyloxycarbonyl Ala-Arg] (Cbz-Ala-Arg-OH), with 3.51 mM; and `C[C@H](NC(=O)OCc1ccccc1)C(=O)N[C@@H](Cc1c[nH]c2ccccc12)C(=O)O` [ZAW, benzyloxycarbonyl Ala-Trp] (Cbz-Ala-Trp-OH), with 1.1 mM. The molecule “ChtCP, M32 family metallocarboxypeptidase from Chitinophaga sp. CB10 (enzyme)” yielded a stoichiometry N in experiment [2] of 2.
